# Experimental data: the PolyMetriX glass transition set
# ± gives the standard deviation of the reports.
row,SMILES,glass transition temperature [°C]
1,*CCCCCCOC(=O)C(CCCCCCCCCCBr)C(=O)OCCCCCCOc1ccc(-n2on2-c2ccc(O*)cc2)cc1 (repeat unit),16.00
2,*c1ccc(Oc2ccc(Oc3ccc(-c4cnc5ccc(-c6ccc7nc(*)cnc7c6)cc5n4)cc3)cc2)cc1 (repeat unit),235.00
3,*Oc1ccc(C(C)(C)c2ccc(OC(=O)CN(CC(*)=O)c3ccc(/N=N/c4ccc([N+](=O)[O-])cc4)cc3)cc2)cc1 (repeat unit),152.00
4,*Oc1ccc(-c2ccc(Oc3ccc(C(=O)c4ccccc4-c4ccccc4C(=O)c4ccc(*)cc4)cc3)cc2)cc1 (repeat unit),193.00
5,*OP(=O)(Oc1ccc(NC(=O)OCCCCCCOC(=O)Nc2ccc(*)cc2)cc1)c1ccccc1 (repeat unit),-3.00
6,*c1ccc2c(c1)C(=O)N(c1c(C)cc(C(c3cc(C(F)(F)F)cc(C(F)(F)F)c3)c3cc(C)c(N4C(=O)c5ccc(C(*)(C(F)(F)F)C(F)(F)F)cc5C4=O)c(C)c3)cc1C)C2=O (repeat unit),288.00
7,*/C=C/c1ccc(/C=C/[Si](C)(C)c2cccc([Si](*)(C)C)c2)cc1 (repeat unit),33.00
8,*C(=O)c1ccc2c(c1)C(=O)N(c1cc(OCCCCCCCCCCCCCCCC)cc(N3C(=O)c4ccc(*)cc4C3=O)c1)C2=O (repeat unit),179.00
9,*CCCCCCOC(=O)OCCCCCCN1C(=O)c2ccc(-c3ccc(-c4ccc5c(c4)C(=O)N(*)C5=O)cc3)cc2C1=O (repeat unit),73.00
10,*CC(*)c1cccc(Cl)c1 (repeat unit),90.00
11,*CC(*)C(=O)OCCCCCCOC(=O)c1ccc(OC(=O)c2ccc(C#N)cc2)cc1 (repeat unit),30.00
12,*CCCCCCCCCCCCOc1ccc(/C=N/N=C/c2ccc(O*)cc2O)c(O)c1 (repeat unit),89.00
13,*Nc1cccc(NC(=O)c2ccc(C(*)=O)cc2)c1 (repeat unit),238.00
14,*CC(*)c1ccccc1C(=O)OC(C)C (repeat unit),146.00
15,*CCN(CCOC(=O)Nc1ccc(C)c(NC(=O)O*)c1)c1ccc(/N=N/c2ccc([N+](=O)[O-])cc2C)c(C)c1 (repeat unit),135.00
16,*CC(*)(C)C(=O)OCCC(F)(F)C(F)(F)C(F)(F)C(F)(F)F (repeat unit),23.00
17,*CCCCCCOc1ccc(C(=O)OC(=O)c2ccc(O*)cc2)cc1 (repeat unit),47.00
18,*CCN(CCOC(=O)c1ccc(C(=O)O*)c(OCCC)c1)c1ccc(/N=N/c2ccc(-c3nc4ccccc4o3)cc2)cc1 (repeat unit),117.00
19,*CC(*)(C)C(=O)OCCOCCOc1ccc(/N=N/c2ccc(C#N)cc2)cc1 (repeat unit),57.00
20,*CCCCO* (repeat unit) [Poly(tetramethylene glycol)],-83.6 ± 2.2
21,*OC(=O)C1CCC(C(=O)OC2COC3C(*)COC23)CC1 (repeat unit),121.00
22,*c1ccc(-c2ccc(-c3ccc(-c4cnc5ccc(-c6ccc7ncc(*)nc7c6)cc5n4)cc3)cc2)cc1 (repeat unit),305.00
23,*C(=O)Nc1ccc(NC(=O)c2ccc3c(c2)C(=O)N(c2cccc(N4C(=O)c5ccc(*)cc5C4=O)c2)C3=O)cc1 (repeat unit),341.00
24,*c1ccc2c(c1)C(=O)N(c1cc(C)c(-c3c(C)cc(N4C(=O)c5ccc(C(*)(C(F)(F)F)C(F)(F)F)cc5C4=O)cc3C)c(C)c1)C2=O (repeat unit),346.00
25,*CCCOC(=O)c1cc(/N=N/c2ccc(OCC)cc2)ccc1-c1ccc(/N=N/c2ccc(OCC)cc2)cc1C(=O)O* (repeat unit),101.00
26,*c1ccc(Oc2ccc(-c3ccc(Oc4ccc(N5C(=O)c6ccc(Oc7ccc8c(c7)C(=O)N(*)C8=O)cc6C5=O)cc4)cc3)cc2)cc1 (repeat unit),245.00
